This is an account of results in patent EP4620949A1, “ACKR3 MODULATORS FOR CARDIOVASCULAR OR ANTIPLATELET THERAPY” (Eberhard Karls Universität Tübingen (Medizinische Fakultät), priority 2024, dated 2025).

For orientation: EC50 means the concentration that produces a half-maximal response. What is called solubility is the dissolved amount per volume that the medium holds. Low readings indicate a poorly soluble substance, high ones a readily soluble substance.

For one series, the target named is T1, human ACKR3 (Homo sapiens, UniProt P25106).
T1 construct: expressed in transfected cells; host or cells: HEK293T
T1 sequence (P25106 whole entry): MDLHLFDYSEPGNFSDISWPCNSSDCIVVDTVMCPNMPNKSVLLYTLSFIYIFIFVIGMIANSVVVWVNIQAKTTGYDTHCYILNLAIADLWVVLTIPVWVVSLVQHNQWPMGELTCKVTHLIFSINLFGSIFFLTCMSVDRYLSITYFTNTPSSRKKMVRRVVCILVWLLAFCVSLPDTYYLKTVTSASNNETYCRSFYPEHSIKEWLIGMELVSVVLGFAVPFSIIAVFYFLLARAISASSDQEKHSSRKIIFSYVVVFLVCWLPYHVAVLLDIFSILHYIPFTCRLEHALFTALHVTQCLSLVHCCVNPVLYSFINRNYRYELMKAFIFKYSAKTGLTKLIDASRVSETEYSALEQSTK
T1 sequence (P49407 whole entry partner): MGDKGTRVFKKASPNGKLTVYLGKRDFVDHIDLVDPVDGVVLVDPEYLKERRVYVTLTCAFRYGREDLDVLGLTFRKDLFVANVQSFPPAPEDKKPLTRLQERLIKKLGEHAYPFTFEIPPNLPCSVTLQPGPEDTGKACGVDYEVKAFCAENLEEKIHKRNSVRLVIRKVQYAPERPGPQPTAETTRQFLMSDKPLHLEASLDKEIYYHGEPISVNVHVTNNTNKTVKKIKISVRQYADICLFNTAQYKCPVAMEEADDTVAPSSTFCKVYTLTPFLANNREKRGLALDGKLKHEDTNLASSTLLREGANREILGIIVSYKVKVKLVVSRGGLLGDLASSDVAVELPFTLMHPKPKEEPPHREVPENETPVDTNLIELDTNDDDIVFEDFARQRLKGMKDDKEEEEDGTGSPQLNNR
Kind of series: ACKR3 β-Arrestin recruitment assay (NanoLuc complementation, NanoBiT) in HEK293T cells. Conditions: ACKR3; HEK293T cells; average value of three independent experiments. Format: cell-based. The procedure:
ACKR3 β-Arrestin Recruitment Assay. […] T.; Encell, L. P.; Wood, K. V. Nanoluc complementation reporter optimized for accurate measurement of protein interactions in cells. […] B.; Reynders, N.; Vanderplasschen, A.; Ollert, M.; Bouvier, M.; Szpakowska, M.; Chevigné, A. Proadrenomedullin n-terminal 20 peptides (pamps) are agonists of the chemokine scavenger receptor ACKR3/CXCR7. […] The prepared cells were then treated with compounds at concentrations ranging from 0.3 nM to 100 µM. Induction of β-Arrestin recruitment to receptors was evaluated by measuring bioluminescence with a Mithras LB940 luminometer (Berthold Technologies).
All curves were fitted to data points generated from the mean of at least three independent experiments. Results with values of p < 0.05 were considered statistically significant.

In a further series the test system is HEK293 cells. Kind of series: RealTime-Glo MT cell viability assay. Format: cell-based. Conditions: concentrations of 1 µM and below, up to 72 h. The procedure: Cell viability studies. […].
Cell Viability Assay. RealTime-Glo™ MT Cell Viability Assay (Promega Corporation, Madison, WI, USA) was performed using THP1 cells and HEK293 cells as indicated in the manufacturer's manual to measure a compound's cytotoxicity on cells. In brief, in a white solid-bottom 96-well plate cells (5x10^3/well) were seeded and incubated with the respective compounds diluted in DMEM (Gibco, Carlsbad, CA, USA). After cell seeding viability reagent is added. Subsequently, cells were incubated with the compound and viability reagent containing medium at 37 °C, 5% CO2 for 72 h. The luminescence signal was determined after 1, 24, 48, and 72 hours on a GloMax®-Multi Detection System plate reader (Promega Corporation, Madison, Wl, USA).

Series [1] deals with platelets. Kind of series: Light transmission platelet aggregation experiments. The series is classed as cell-based. The following applies: preincubation with 100 µM ACKR3 agonist, activation with 2.5 µM ADP; compared to the control. How it is done: Platelet aggregation studies. To further evaluate the compounds inhibitory potential of platelet aggregation, aggregation experiments were conducted.
Aggregation experiments. For the light transmission aggregation experiments, citrate anticoagulated blood from healthy donors was used. To obtain platelet-rich plasma, whole blood was centrifuged at 210 × g for 20 min at room temperature. 1 × 10^8 platelets were preincubated with 100 µM ACKR3 agonist for 15 min at 37°C. Subsequently, platelets were activated with 2.5 µM ADP and aggregation was analyzed for 5 min at 1,000 rpm and 37°C using a light transmission aggregometer (Aggregometer 490-X; Chrono-Log Corp., Havertown, Pennsylvania, United States). Maximum platelet aggregation and the area under the curve were quantified using Aggrolink8 software (Chrono-Log Corp., Havertown, Pennsylvania, United States).

The nature of the next series: Kinetic solubility assay. The following applies: PBS buffer with 1% DMSO, 4 °C, aqueous buffer, kinetic from dmso stock, 1% DMSO, 99% PBS buffer (pH 7.4). The series is classed as physicochemical. The procedure:
Solubility Assay. A 100 mL flask with phosphate-buffered saline was prepared from NaCl, KCI, Na2HPO4, KH2PO4, and distilled water. The buffer was adjusted to pH 7.4 with HCl. Afterwards, 10mM stock solutions of compounds in DMSO were prepared. 10 µL compound stock solution was added to 990 µL PBS in Eppendorf tubes. As a reference, 10 µL compound stock solution was added to 990 µL HPLC-grade MeOH in Eppendorf tubes. All tubes were centrifuged (16000 relative centrifugal force, 4 °C, 20 min). Subsequently, 600 µL supernatant was extracted carefully and filled into HPLC vials. […] Compounds solubility was calculated by AUC of compound in PBS divided by AUC of reference solution multiplied by concentration of the compound in solution.

Series [2] relates to platelets. Kind of series: Flow cytometry assay of platelet degranulation (P-Selectin surface expression in PRP). The series is classed as cell-based, human. The following applies: PRP pre-incubated with compound (100 µM), then CRP-XL (1 µg/mL); % ±SEM normalized to CRP-XL-treated vehicle PRP. How it is done:
Platelet Degranulation Studies of Derivatives. Concurrent with the β-Arrestin recruitment potency optimization, the compounds were also tested and developed according to their functional activity. To determine the ability of a compound to modulate platelets, P-Selectin surface expression was measured. P-Selectin is a surface protein involved in cell adhesion mechanisms and can be found on activated platelets. After induction of platelet aggregation in platelet-rich plasma (PRP), treatment with the respective compound should therefore lead to a significant reduction in P-Selectin expression. […]. […]. Similarly, platelet degranulation potency was highly sensitive toward "linker"-changes (Structure C, Table 1). A distinct trend could not be registered. […]. Flow Cytometry Assay. The inhibition of platelet degranulation was determined via flow cytometry experiments. Platelets were treated with collagen-related peptide (CRP-XL, CambCol Laboratories, Cambridge, UK) and the platelets' activation state was determined (Geue, S.; Aurbach, K.; Manke, M.-C.; Manukjan, G.; Münzer, P.; Stegner, D.; Brähler, C.; Walker-Allgaier, B.; Märklin, M.; Borst, C. E.; Quintanilla-Fend, L.; Rath, D.; Geisler, T.; Salih, H. R.; Seizer, P.; Lang, F.; Nieswandt, B.; Gawaz, M.; Schulze, H.; Pleines, I.; Borst, O. Pivotal role of pdk1 in megakaryocyte cytoskeletal dynamics and polarization during platelet biogenesis. Blood 2019, 134, 1847-1858; and Malehmir, M.; Pfister, D.; Gallage, S.; Szydlowska, M.; Inverso, D.; Kotsiliti, E.; Leone, V.; Peiseler, M.; Surewaard, B. G. J.; Rath, D.; Ali, A.; Wolf, M. J.; Drescher, H.; Healy, M. E.; Dauch, D.; Kroy, D.; Krenkel, O.; Kohlhepp, M.; Engleitner, T.; Olkus, A.; Sijmonsma, T.; Volz, J.; Deppermann, C.; Stegner, D.; Helbling, P.; Nombela-Arrieta, C.; Rafiei, A.; Hinterleitner, M.; Rail, M.; Baku, F.; Borst, O.; Wilson, C. L.; Leslie, J.; O'Connor, T.; Wes-ton, C. J.; Chauhan, A.; Adams, D. H.; Sheriff, L.; Teijeiro, A.; Prinz, M.; Bogeska, R.; An-stee, N.; Bongers, M. N.; Notohamiprodjo, M.; Geisler, T.; Withers, D. J.; Ware, J.; Mann, D. A.; Augustin, H. G.; Vegiopoulos, A.; Milsom, M. D.; Rose, A. J.; Lalor, P. F.; Llovet, J. M.; Pinyol, R.; Tacke, F.; Rad, R.; Matter, M.; Djouder, N.; Kubes, P.; Knolle, P. A.; Unger, K.; Zender, L.; Nieswandt, B.; Gawaz, M.; Weber, A.; Heikenwalder, M. Platelet gpibα is a mediator and potential interventional target for nash and subsequent liver cancer. Nat. Med. 2019, 25, 641-655). Briefly, PRP was isolated from peripheral human blood collected in citrate-phosphate-dextrose solution with adenine (CPDA) and diluted with phosphate-buffered saline (PBS) (Sigma Aldrich Co., Ltd., St. Luis, Missouri, USA) supplemented with CaCl2 and MgCl2. PRP (106 platelets /sample) was preincubated with the respective compound (100 µM) for 15 min. Samples were treated with 1 µg/ml CRP-XL (CambCol Laboratories, Cambridge, UK) for 30 min at room temperature in the presence of the respective fluorochrome-conjugated antibody against P-Selectin (CD62P-FITC; Beckman Coulter, Brea, CA, USA). Subsequently, samples were fixed in 0.5% paraformaldehyde and analyzed on a FACS-Calibur flow cytometer (FACS-Caliber flow cytometer, Becton-Dickinson, East Rutherford, NJ, USA). Mean fluorescence intensity (MFI) was used as a quantitative measurement of platelet surface expression.
On the technique in general: In flow cytometry, cells or beads pass a laser one at a time.

Series [3] can be described thus: Metabolic stability assay in human liver microsomes. Format: in vitro ADME. The procedure:
(§1) Metabolic Stability Assay. Pooled liver microsomes from mice (male) and humans (male) were purchased from Sekisui XenoTech, LLC, Kansas City, KS, USA. Metabolic stability assays were performed in the presence of an NADPH-regenerating system consisting of 5 mM glucose-6-phosphate, 5 U/mL glucose-6-phosphate dehydrogenase, and 1 mM NADP^+. Liver microsomes (20 mg/mL), NADPH-regenerating system, and 4 mM MgCl2·6 H2O in 0.1 M TRIS-HCl-buffer (pH 7.4) were preincubated for 5 min at 37 °C and 750 rpm on a shaker. The reaction was started by adding the preheated compound at 10 mM resulting in a final concentration of 0.1 mM. […] The samples were vortexed for 30 s and centrifuged (21910 relative centrifugal force, 4 °C, 20 min). The supernatant was used directly for LC-MS analysis.
(§2) All compound incubations were conducted at least in triplicates. Additionally, a negative control containing BSA (20 mg/mL) instead of liver microsomes and a positive control using Verapamil instead of the compound was performed. A limit of 1% organic solvent during incubation was not exceeded. […]
(Liver microsomes are a subcellular fraction often used to study metabolism.)

Series [4] in a line: Metabolic stability assay in mouse liver microsomes. The series is classed as in vitro ADME. Conditions: after 60 min. The procedure:
as §1, §2

Setting [5] is: average of three independent experiments ± SEM.

“And” between values parts separate entries of the source, which are not always exact repeats. Equal values may be shown once.

In the case of `CCN(CCCNC(=O)c1ccc(-c2ccccc2)s1)Cc1ccccc1` [Compound 23, N-(3-(benzyl(ethyl)amino)propyl)-5-phenylthiophene-2-carboxamide], the response on human ACKR3 was half-maximal at 111 nM (EC50). Also, in the series on HEK293 cells, the “cell toxicity / tolerability (in words)” value is “tolerated well”. Further, the “platelet aggregation (in words)” value with platelets [1] is on record as “highest potency for platelet aggregation inhibition”. The solubility in “Kinetic solubility assay” stood at 30 µg/mL; in “Kinetic solubility assay” (setting [5]), 75 ± 1 µM.

In the case of `CCCCN(CCCNC(=O)c1ccc(-c2ccccc2)s1)Cc1ccccc1` [Compound 27, N-(3-(benzyl(butyl)amino)propyl)-5-phenylthiophene-2-carboxamide], in the series with platelets [2], the P-Selectin expression reduction is 77% and 77±6%. Also, the “cell toxicity / tolerability (in words)” value with HEK293 cells is recorded as “tolerated well”. The figures for the compound remained result in series [3] (60 min) and in series [4] were “Around 69%” and “around 24%”, respectively. Moreover, in series [3] (over the course of 60 min), the “metabolic stability (in words)” value is listed as “stable”. Also, the values for the solubility in “Kinetic solubility assay” and in “Kinetic solubility assay” (setting [5]) were 10 µg/mL and 28 ± 4 µM, respectively.
